Test results from patent US20100179188A1, “NITROXIDE RADICAL AS TREATMENT FOR NEURODEGENERATION” (Office of Technology Transfer, NIH, priority 2007, published 2010).

Tests used:
IRP2−/− mice = assay: Hematocrit (anemia) of IRP2−/− mice on Tempo1 diet; assay type: in vivo
Protocol: (§1) Diet: The mice were weaned 3-4 weeks after their birth. Immediately after weaning, mice were maintained on either a Tempo1-supplemented or control diet. In the Tempo1-supplemented diet, powdered Tempo1 was uniformly mixed with bacon-flavored mouse chow by a “cold press” technique (Bio-Serv, Frenchtown, N.J., USA) at a concentration of 10 mg/g of food. Bacon-flavored chow without Tempo1 was used as the control diet.

TfR1 = assay: Western blot of TfR1 in brain-region lysates of IRP2−/− mice; assay type: in vivo; conditions: lysates from cerebellum, brain-stem and forebrain of IRP2−/− mice, Tempo1 diet vs control diet
Protocol: as §1
Tissue and lysate preparation: Animals were euthanized and tissues were frozen in liquid nitrogen immediately after harvesting, and stored at −80° C. under argon. Experiments were performed on tissues that were pulverized in liquid N2-cooled mortars in an anaerobic chamber, and then lysed in lysis buffer that was deaerated by cyclic freezethaw and air-removal with argon. […]
Lysates made from various brain regions of IRP2−/− mice that were maintained on a control diet or on a Tempo1-supplemented diet were analyzed for IRE binding activity of IRP1 and for TfR1, IRP1, and actin protein levels by gel-shift assay and Western blot. […] FIG. 3b is a quantification of the results as intensity of the bands relative to the control, represented here as 100%. Quantification was performed with the IQMac (IRP1 activity) or NIH Image (protein levels) program. Error bars represent the standard deviation calculated from the results of two different sets of animals.

Structure (SMILES): CC1(C)CC(O)CC(C)(C)N1[O] [Tempo1]
- hematocrit (IRP2−/− mice; IRP2−/− mice after 8 months of Tempo1 diet (untreated IRP2−/− 46±5, WT 52±2)): 46±4
- mild anemia of IRP2−/− mice (IRP2−/− mice; IRP2−/− mice treated with Tempo1): did not improve
- TfR1 protein levels (TfR1): markedly increased
